# From PubChem BioAssay (NCI)
#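 Grown in 96-well plates, cells were treated for 48 hours with each compound at five concentrations. Insufficient inhibition: endpoint recorded as highest concentration tested. TGI denotes the concentration required for complete inhibition of growth.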
# Experiments:
# Assay in all cases: DTP human tumour cell line panel, 48 h
# [1] = tested on: IGROV1 ovarian
# [2] = tested on: ACHN renal
# [3] = tested on: MDA-MB-435
# [4] = tested on: UO-31 renal
# [5] = tested on: MDA-N
# [6] = tested on: NCI-H522 lung
# [7] = tested on: T-47D breast
# [8] = tested on: UACC-257 melanoma
# [9] = tested on: HL-60(TB) leukemia
# [10] = tested on: RXF 393 renal
# [11] = tested on: HOP-92 NSCLC
# [12] = tested on: CCRF-CEM leukemia
# [13] = tested on: A498 renal
# [14] = tested on: SF-539 CNS
# [15] = tested on: OVCAR-8 ovarian
# [16] = tested on: SW-620 colon
# [17] = tested on: CAKI-1 renal
# [18] = tested on: OVCAR-4 ovarian
# [19] = tested on: SF-268 CNS
# [20] = tested on: MCF7 breast
Compound,TGI [1],TGI [2],TGI [3],TGI [4],TGI [5],TGI [6],TGI [7],TGI [8],TGI [9],TGI [10],TGI [11],TGI [12],TGI [13],TGI [14],TGI [15],TGI [16],TGI [17],TGI [18],TGI [19],TGI [20]
CCOC(=O)NNC(=O)NCCCCNC(=O)NNC(=O)OCC,> 100 µM,> 100 µM,> 100 µM,> 100 µM,> 100 µM,> 100 µM,> 100 µM,> 100 µM,> 100 µM,> 100 µM,> 100 µM,> 100 µM,> 100 µM,> 100 µM,> 100 µM,> 100 µM,> 100 µM,,,
CCCCC/C=C1\CCC(CN(C)C)C1=O (stereo unspecified),32.6 µM,27.3 µM,,31.4 µM,,13.4 µM,,32.2 µM,30.3 µM,,27.1 µM,18.5 µM,,24.1 µM,> 41.7 µM,11.7 µM,18.4 µM,42.2 µM,41.4 µM,
COC(=O)[C@@]1(C)/C(=N/NS(=O)(=O)c2ccc(C)cc2)CCC[C@@H]1C,> 100 µM,> 100 µM,,> 100 µM,,> 100 µM,,> 100 µM,> 100 µM,> 100 µM,> 100 µM,> 100 µM,> 100 µM,> 100 µM,> 100 µM,,> 100 µM,> 100 µM,> 100 µM,
CN(C)CCNC(=O)c1cccc2c(Nc3ccc(S(=O)(=O)N=C(N)N)cc3)c3ccccc3nc12,45 µM,61.1 µM,,48.6 µM,,17.3 µM,,,2.59 µM,> 100 µM,,30.2 µM,,36.7 µM,69.1 µM,> 100 µM,,30 µM,26.6 µM,
CC(C)[Si]1(C(C)C)OCC2OC3(CO)C(Oc4nc(=O)ccn43)C2O[Si](C(C)C)(C(C)C)O1 (stereo unspecified),33 µM,29.3 µM,31.4 µM,27.2 µM,,,24 µM,30.1 µM,27.1 µM,18.3 µM,32.2 µM,24.6 µM,,28.3 µM,31.8 µM,34.7 µM,29.4 µM,26.7 µM,35.6 µM,18.6 µM
COC(=O)C(C(=O)Cc1ccccc1[N+](=O)[O-])C(=O)OC,> 100 µM,> 100 µM,,> 100 µM,,> 100 µM,,> 100 µM,> 100 µM,> 100 µM,> 100 µM,> 100 µM,,> 100 µM,> 100 µM,> 100 µM,> 100 µM,> 100 µM,> 100 µM,
CC(Oc1ccc(OCC2CCCCC2)cc1)C(=O)OCC(=O)c1ccc(-c2ccccc2)cc1 (stereo unspecified),> 100 µM,> 100 µM,,> 100 µM,,> 100 µM,,> 100 µM,> 100 µM,> 100 µM,,> 100 µM,> 100 µM,> 100 µM,> 100 µM,,,> 100 µM,> 100 µM,
CS(=O)(=O)c1ccc(-c2cc(-c3ccc(S(C)(=O)=O)cc3)[n+](-c3cc(-c4ccccc4)c([O-])c(-c4ccccc4)c3)c(-c3ccc(S(C)(=O)=O)cc3)c2)cc1,> 100 µM,> 100 µM,,> 100 µM,,> 100 µM,,> 100 µM,,> 100 µM,,,> 100 µM,> 100 µM,> 100 µM,> 100 µM,> 100 µM,> 100 µM,> 100 µM,
CN(C)/N=C1/CCC(C(F)(F)F)(C(F)(F)F)O1,82.7 µM,> 100 µM,76 µM,98.2 µM,> 100 µM,99.3 µM,> 100 µM,,54.8 µM,> 100 µM,70.1 µM,90.3 µM,53.1 µM,> 100 µM,,> 100 µM,> 100 µM,> 100 µM,> 100 µM,
CCOC(=O)/C(=C/c1ccc(N(C)C)cc1)N(CC)CC,> 100 µM,> 100 µM,,> 100 µM,,> 100 µM,,> 100 µM,81 µM,,> 100 µM,91.9 µM,,> 100 µM,> 100 µM,> 100 µM,> 100 µM,> 100 µM,> 100 µM,
CC1(C)OC[C@@H]([C@H](O)C2C=CC(=O)S2)O1 (stereo partly specified),,49.2 µM,> 100 µM,50 µM,> 100 µM,,,> 100 µM,> 100 µM,53.5 µM,58.5 µM,97.9 µM,51.1 µM,> 100 µM,56.4 µM,98.6 µM,72.4 µM,> 100 µM,38.8 µM,> 100 µM
C=C(C)C1CCC2(C)CC1c1c(c(C)cc3c1[nH]c1ccccc13)O2 (stereo unspecified),> 25 µM,> 25 µM,,> 25 µM,,> 25 µM,,,> 25 µM,,> 25 µM,> 25 µM,,> 25 µM,> 25 µM,> 25 µM,,> 25 µM,> 25 µM,
O=C1c2ccccc2C(=O)c2c1nc1ccccc1c2-c1cncc(-c2c3c(nc4ccccc24)C(=O)c2ccccc2C3=O)c1,19.7 µM,> 55.7 µM,3.96 µM,31.8 µM,,19.6 µM,57.6 µM,22.4 µM,18.3 µM,> 100 µM,> 43.7 µM,43.9 µM,26.7 µM,60.5 µM,27.1 µM,37.8 µM,71.1 µM,> 100 µM,> 62.8 µM,32.8 µM
COc1ccc(C(C#N)NNC(=O)Cc2ccccc2)cc1OC (stereo unspecified),> 100 µM,> 100 µM,,> 100 µM,,> 100 µM,,> 100 µM,> 100 µM,> 100 µM,> 100 µM,> 100 µM,,> 100 µM,> 100 µM,> 100 µM,> 100 µM,> 100 µM,> 100 µM,
C=CCN1CCC(O)(c2cc(C(=O)OCC)[nH]c2-c2cc(C)no2)C1 (stereo unspecified),> 100 µM,> 100 µM,> 100 µM,> 100 µM,> 100 µM,> 100 µM,> 100 µM,> 100 µM,> 100 µM,> 100 µM,> 100 µM,> 100 µM,> 100 µM,> 100 µM,> 100 µM,> 100 µM,> 100 µM,> 100 µM,> 100 µM,
CCOC(=O)C1SC(=Nc2ccccc2)N=C1C (stereo unspecified),> 100 µM,> 100 µM,,> 100 µM,,> 100 µM,,> 100 µM,> 100 µM,> 100 µM,88.8 µM,,> 100 µM,> 100 µM,> 100 µM,> 100 µM,,> 100 µM,> 100 µM,
CSc1ccsc1-c1sc(-c2cc(SC)c(-c3sc(-c4cc(SC)c(-c5sccc5SC)s4)cc3SC)s2)cc1SC,> 100 µM,> 100 µM,56.5 µM,,,> 100 µM,82.8 µM,> 100 µM,8.9 µM,> 100 µM,> 100 µM,27 µM,> 100 µM,> 100 µM,> 100 µM,69.7 µM,34 µM,> 100 µM,> 100 µM,> 100 µM
Cc1nn(C(=O)CC(=O)Nc2ccc(Cl)cc2)c(C)c1N=Nc1ccccc1C(=O)O,> 100 µM,,,> 100 µM,,> 100 µM,,> 100 µM,> 100 µM,,,> 100 µM,> 100 µM,> 100 µM,> 100 µM,> 100 µM,> 100 µM,> 100 µM,> 100 µM,
C=C(Nc1nc2ccc(C)cc2s1)C(=O)C(CC)C(=O)C(CC)CC1C(=O)NC(=O)NC1=O (stereo unspecified),> 100 µM,> 100 µM,> 100 µM,> 100 µM,> 100 µM,> 100 µM,,> 100 µM,> 100 µM,> 100 µM,> 100 µM,> 100 µM,,> 100 µM,> 100 µM,> 100 µM,> 100 µM,> 100 µM,> 100 µM,> 100 µM
C[N+](C)(C)CC1CCC/C1=N\OC(=O)c1ccccc1 (stereo unspecified),> 100 µM,> 100 µM,,> 100 µM,,> 100 µM,,> 100 µM,> 100 µM,> 100 µM,,> 100 µM,> 100 µM,> 100 µM,> 100 µM,> 100 µM,,> 100 µM,> 100 µM,
O=c1c2ncn(C3CCCO3)c2n(-c2ccccc2)c(=S)n1-c1ccccc1 (stereo unspecified),> 100 µM,> 100 µM,> 100 µM,> 100 µM,,> 100 µM,> 100 µM,> 100 µM,> 100 µM,> 100 µM,,> 100 µM,> 100 µM,> 100 µM,> 100 µM,> 100 µM,> 100 µM,> 100 µM,> 100 µM,> 100 µM
C=CN1C(=O)[C@H](Oc2ccccc2)[C@@H]1c1ccccc1,> 100 µM,> 100 µM,,> 100 µM,,91.3 µM,,> 100 µM,,52.5 µM,,> 100 µM,> 100 µM,31.1 µM,83.6 µM,> 100 µM,,,> 100 µM,
COc1ccc(-c2nc3ncccn3c2-c2ccc(SC)cc2)cc1,8.15 µM,41 µM,0.499 µM,66.6 µM,,0.502 µM,,> 100 µM,6.61 µM,,70.4 µM,> 100 µM,,5.85 µM,> 100 µM,> 100 µM,4.96 µM,> 100 µM,3.15 µM,
COC1(OC)CCCc2c1no[n+]2[O-],> 100 µM,> 100 µM,> 100 µM,> 100 µM,> 100 µM,> 100 µM,,> 100 µM,> 100 µM,> 100 µM,,> 100 µM,> 100 µM,> 100 µM,> 100 µM,> 100 µM,> 100 µM,> 100 µM,> 100 µM,> 100 µM
O=[N+]([O-])c1ccc(-c2cnc3ccccn23)cc1,,> 100 µM,,> 100 µM,,> 100 µM,,> 100 µM,> 100 µM,> 100 µM,,> 100 µM,> 100 µM,> 100 µM,> 100 µM,> 100 µM,> 100 µM,> 100 µM,> 100 µM,
COc1cccc(C2CC23C(=O)NC(=O)NC3=O)c1 (stereo unspecified),> 100 µM,> 100 µM,,> 100 µM,,> 100 µM,,> 100 µM,> 100 µM,,> 100 µM,> 100 µM,> 100 µM,> 100 µM,> 100 µM,> 100 µM,> 100 µM,> 100 µM,> 100 µM,
C=CCC1(CN(C)C)CC/C(=C\c2ccc(Cl)cc2)C1=O (stereo unspecified),> 31.6 µM,> 100 µM,,> 100 µM,,41.9 µM,,54.1 µM,74.4 µM,> 72.9 µM,> 100 µM,24 µM,> 100 µM,> 83.8 µM,> 100 µM,> 76.2 µM,> 100 µM,> 94.5 µM,> 100 µM,
CC(C)=CC1CC(=[N+]=[N-])C(=O)C1(C)C (stereo unspecified),> 100 µM,> 100 µM,,> 100 µM,,> 100 µM,,> 100 µM,> 100 µM,> 31.6 µM,> 100 µM,> 83.7 µM,> 100 µM,> 100 µM,> 100 µM,> 100 µM,> 100 µM,> 100 µM,> 100 µM,
CC1(C)CC(=O)CC(=Nc2ccc([N+](=O)[O-])cc2)C1,> 100 µM,> 100 µM,,> 100 µM,,> 100 µM,,> 100 µM,> 100 µM,> 100 µM,,60.8 µM,> 100 µM,,> 100 µM,,,,> 100 µM,
